Assay results: patent publication US20240381870A1 (priority 2024, published 2024)

What was measured:
Fusarium graminearum = format: cell-based; details: mycelial growth inhibition, PDA, 25° C.
[1] = test system: Fusarium pseudogramineaqum; format: cell-based
wheat scab = format: in vivo; details: in words; field experiments of both sites (Tables 3 and 4)

With `O=C(NC1CCC1c1ccc(Cl)cc1Cl)c1cccnc1C(F)(F)F` (stereo not drawn) [Cyclobutrifluram(C), Cyclobutrifluram] the EC50 ppm (Fusarium graminearum) was 0.3744 ppm, the EC50 ppm [1] was 0.1276 ppm and the “control effect on wheat scab” value (wheat scab) was “significant control effect”.
In the case of `CCCN(CCOc1c(Cl)cc(Cl)cc1Cl)C(=O)n1ccnc1` [Prochloraz(P), Prochloraz], the EC50 ppm (Fusarium graminearum) is reported as 0.2663 ppm, the EC50 ppm [1] is reported as 0.2311 ppm and the “control effect on wheat scab” value (wheat scab) is reported as “significant control effect”.
